Data as given in patent US20120034162A1, “Fullerene Assisted Cell Penetrating Peptides” (William March Rice University, priority 2006, published 2012).
“Also recorded” adds a separate entry of the source. Each block holds one compound with its values, some of them ahead of it. Primed or numbered codes have the meaning given here. Ends that are not written are not given here. Baa″ = fullerene (C60, Bucky) amino acid derivative of phenylalanine; Baa = not defined here

Experiments:
[1] = Antioxidant properties (IC50 determined by Csixty Inc. through an established method); assay type: biochemical
Source text: A plot of inhibition as a function of concentration for peptide 27 is shown in FIG. 18 with a comparison of Baa and Trolox. […] It is unclear at the present time the reason for the slight reduction in activity between Baa and Baa-Glu-Glu-Glu-Glu-Gly-Gly-Gly-Ser-OH. Given that the peptide's aggregation in aqueous solution presumably results in the “Glu-Glu-Glu-Glu-Gly-Gly-Gly-Ser-OH” being exposed to the solution, the sequence could act as a buffer limiting electron transfer processes.

[2] = Peptide aggregation, particle size in solution by dynamic light scattering (DLS); assay type: physicochemical; conditions: PBS buffer; for aggregate size, major (or single) component: 0.125-2.0 mg/mL
Experimental: (§1) Rink amide and Wang resin were obtained from Novabiochem, USA. Amino acids were purchased from Novabiochem and used as received. MALDI-TOF mass analysis was performed on a linear Protein-TOF Bruker instrument using sinipinic acid as the matrix. CD spectra were obtained on a Jasco J-700 dichrometer using 1 mm path-length quartz cells. Peptide solutions were 1.0 mg·mL^−1 solution in milliQ H2O or PBS buffer. In the case of peptides (21, 22 and 23), the pH was first adjusted to 10 to break up any aggregations and then adjusted by addition of 0.1 mM HCl until the desired pH was obtained. CD spectra were recorded in millidegrees and converted to residual molar ellipticity. TEM measurements were performed on a JEOL 2010 TEM at 200 kV. DLS Measurements were performed on the samples using an Brookhaven 90Plus submicron particle-size analyzer with HeNe laser (30 mW) that operates at […] wavelength.
With reference back to Table 1, in order to understand the intracellular transport of the FITC functionalized Baa-peptides, 25 and Baa-Lys(FITC)-NLS (26), their particle size in solution was determined by dynamic light scattering (DLS). Three series of solutions of 24, 25 and 26 in the range of 0.125-2.0 mg/mL was prepared by weighing method. PBS buffer prepared from HPLC grade water was used as solvent and was filtered through a […] cup filter (Millipore, Express).

[3] = system: MDA-MB neoroblastoma cells; test: Cellular proliferation, CCK-8 assay; assay type: cell-based; conditions: 48 h
Experimental: (§2) Cellular proliferation studies. Cancer cells at 5×10^4 cells/well were plated in triplicate in standard flat-bottomed 96-well tissue culture plates in the presence of fullerene peptides in PBS buffer with a final volume of 100 μL. Unless otherwise indicated, cells were grown for 48 h at 37° C. in a CO2 incubator. Relative cell growth was determined by Cell Counting Kit-8 (CCK-8) cell proliferation assay as described by the manufacturer using an automated plate reader. Results were calculated in a blinded fashion and are the means of bi or triplicate determinations.
A similar comparison has been made with MDA-MB neoroblastoma cells (FIG. 25) using H-Baa-Lys(FITC)-NLS (26), Baa-Penetratin (29) and Baa-Glu-Glu-Glu-Glu-Gly-Gly-Gly-Ser-OH (27). […] Given that both H-Baa-Lys(FITC)-NLS and Baa-Penetratin are cationic peptides which are readily taken up by the cells the cell inhibition cannot be a function of the uptake (i.e., intracellular concentration), but must also be dependent on the sequence.

[4] = system: MCF-7 breast cancer cells; test: Cellular proliferation, CCK-8 assay; assay type: cell-based; conditions: MCF-7, 48 h, concentration given with value
Experimental: as §2
The effect of different Baa-peptide sequences on the cell viability of MCF-7 breast cancer cells was investigated to determine if the sequence has an effect rather than the presence of the C60. […] This is in agreement with the MTT cell viability test (see above). […] Clearly the sequence has a significant effect on the cell viability. However, it is worth noting that this may be due to either inherent differences in toxicity or differences in cellular uptake.

[5] = Peptide secondary structure (CD) and appearance (TEM) as a function of pH; assay type: physicochemical; conditions: for Secondary structure with decreasing pH: CD spectra; for Appearance / diameter of non-fibrous particles: TEM; for diameter of non-fibrous particles: micelles at pH 4 (21), precipitate particles at pH 6 and lower (22)
Experimental: as §1
Control of peptide secondary structure by fullerene amino acids. In an effort to understand the effect of the C60 substituents on the secondary structure of a peptide we have investigated two sequences and the position within a particular sequence. The well characterized model heptad peptides Glu-Ile-Ala-Gln-Leu-Glu-Tyr-Glu-Ile-Ser-Gln-Leu-Glu-Gln-NH2 (2HP, 22 in Table 1) […]NH2 (3HP, 23 in Table 1) were chosen because they are known to form fibers at pH below 7 concomitant with β-sheet formation. To investigate the effects of the presence and C60 on the conformation of the peptide the model peptide 2HP was prepared in which either tyrosine was replaced by Baa (21 in Table 1) or Baa was added to the C-terminus (22 in Table 1). The C-terminus derivative 23 was also prepared for 3HP.

IMR32 cancer cell line = test: Cellular proliferation, CCK-8 assay; assay type: cell-based
Experimental: Cellular proliferation studies. Cancer cells at 5×10^4 cells/well were plated in triplicate in standard flat-bottomed 96-well tissue culture plates in the presence of fullerene peptides in PBS buffer with a final volume of 100 μL. Unless otherwise indicated, cells were grown for 48 h at 37° C. in a CO2 incubator. Relative cell growth was determined by Cell Counting Kit-8 (CCK-8) cell proliferation assay as described by the manufacturer using an automated plate reader. Results were calculated in a blinded fashion and are the means of bi or triplicate determinations. […] This difference is possibly because the relative propensity of Baa-2HP to precipitate under acidic conditions is less than that of Baa-3HP. Thus, the formation of aggregates of Baa-3HP would cause the inhibition of cell growth. However, we cannot discount alternative factors such as the sequence and its overall charge differences. For example, the strength of the aggregate may be greater for Baa-3HP than Baa-2HP due to the stronger self-assembly forces in 3HP.

HEK-293a cells [6] = test: Cellular uptake by fluorescence microscopy; assay type: cell-based, human; conditions: for cellular uptake / localization by fluorescence: 40 μM, 24 hrs, 37° C.; for Active Cellular Uptake: HEK-293a cells
Experimental: Cellular uptake. An immortalized human embryonic kidney epithelial cancer cell line was used in initial cellular uptake studies. HEK-293a cells were cultured in RMPI 1640 medium supplemented with 10% fetal bovine serum (FBS) in 5% CO2 and 37° C. humidified incubator. The medium was supplemented with penicillin (100 U·mL^−1), streptomycin (100 μg/mL), and glutamine (2 mM). For experiments and microscopy, cells were seeded at 1×10^4 cells per well on 6-well plates and grown for two days in RPMI supplemented with 10%. Cells were incubated with each peptide (40 μM) for 24 hrs at 37° C. After treatment, the cells were washed with RPMI supplemented with 10% FBS and phosphate buffered saline (PBS, 10 mM). Fluorescence was observed by a fluorescent microscope equipped with FITC and red filters.

[7] = assay type: in vitro ADME, bovine
Source text: Peptide stability. In order to test the stability of the fullerene peptide linkage, samples of Baa-Lys(FITC)-Lys8-OH and H-Baa-Lys(FITC)-NLS were exposed to bovine plasma for up to 3 days and analyzed by HPLC.

HEK-293a cells [8] = test: Cellular uptake by fluorescence microscopy; assay type: cell-based, human
[9] = Aggregate size and morphology by cryo-TEM; assay type: physicochemical; conditions: 1.0 mg/mL in PBS buffer, pH 7
Experimental: To further examine the actual aggregate size and morphology, cryo-TEM experiments were performed for both peptides 25 and 26. The images were taken in the concentration of 1.0 mg/mL for both peptides. Samples for cryo-TEM studies were prepared by dipping a copper grid coated with amorphous carbon-holey film into the sample solution. The TEM images were mainly taken in the hole region of the TEM grid to minimize the artificial effect from the samples or ice. […] Both peptides forms spherical and ellipsoidal clusters, with an average aggregate sizes of 40-80 nm for 25 and 50-150 nm for 26, which are generally smaller than the diameters observed by DLS. Consistent with the DLS study, Baa-Lys(FITC)-Lys8-OH (25) are more uniform in size than Baa-Lys(FITC)-NLS (26). FIGS. 9a and 9b show the vitreous ice cryo-TEM micrograph of the large aggregates (9a) and small aggregates (9b) formed by Baa-Lys(FITC)-Lys8-OH in PBS buffer (1 mg/mL at pH=7). There are two dominant groups in size for 25; one type has the diameter of 40-80 nm with predominant population at size of ca. 50 nm, and the other population has a diameter less than 20 nm, which may correspondent to the size of fullerene peptides itself. In contrast, the size distribution of 26 large aggregates is much polydisperse, ranging from 50-150 nm with no obvious dominant population for large aggregates, while smaller aggregates has similar size as Baa-Lys(FITC)-Lys8-OH. FIGS. 10a and 10b show the vitreous ice cryo-TEM micrograph of the large aggregates (10a) and small aggregates (10b) formed by Baa-Lys(FITC)-NLS in PBS buffer (1 mg/mL at pH=7). The aggregate sizes from the two peptides seem to be consistent with the hydrophilicity of peptide chain as more hydrophilic sequence corresponds to smaller size (25), and vice versa (26).

- IC50 [1]: 480 µM
Compound: Cc1c(C)c2c(c(C)c1O)CCC(C)(C(=O)O)O2 (stereo not drawn) [Trolox, reference compound]

- aggregate size, major (or single) component [2]: ca. 200 nm
- aggregate distribution, single broad aggregate ([2]; 0.25-2.0 mg/mL): 50-350 nm
Compound: Baa-(Lys)8-OH [Peptide 24]

Compound: Baa-Arg-Gln-Ile-Lys-Ile-Trp-Phe-Gln-Asn-Arg-Arg-Met-Lys-Trp-Lys-Lys-OH (Baa-RQIKIWFQNRRMKWKK-OH; reading uncertain) [Peptide 29]
- inhibition of cell growth [3]: significant inhibition for solutions above 8-14 μM
- inhibition of cell growth [4]: significant inhibition effect at 31.4 μM

- IC50 [1]: 89 µM
Compound: Baa-Glu-Glu-Glu-Glu-Gly-Gly-Gly-Ser-OH ({Baa″}-EEEEGGGS-OH) [Peptide 27]
- inhibition of cell growth [3]: significant inhibition for solutions above 8-14 μM
- inhibition of cell growth [4]: no cellular inhibition up to 57 μM
- antioxidant activity relative to Trolox ([1]; molar, from IC50): ca. five fold

Compound: Baa-Glu-Ile-Ala-Gln-Leu-Glu-Tyr-Glu-Ile-Ser-Gln-Leu-Glu-Gln-Glu-Ile-Gln-Ala-Leu-Glu-Ser-NH2 ({Baa″}-EIAQLEYEISQLEQEIQALES-NH2) [Peptide 23]
- inhibition of cell growth [3]: no obvious inhibition
- Secondary structure with decreasing pH [5]: α-helix coiled
- Appearance [5]: fibers
- inhibition of cell growth (IMR32 cancer cell line; IMR32, 100 μg·mL^−1 (29.4 μM)): significant inhibition
- inhibition of cell growth [4]: no obvious inhibition

Compound: Baa-Glu-Ile-Ala-Gln-Leu-Glu-Tyr-Glu-Ile-Ser-Gln-Leu-Glu-Gln-NH2 ({Baa″}-EIAQLEYEISQLEQ-NH2) [Peptide 22]
- inhibition of cell growth [3]: no obvious inhibition
- Secondary structure with decreasing pH [5]: random coil → α-helix
- Appearance [5]: aggregates
- diameter of non-fibrous particles [5]: approximately 20 nm
- inhibition of cell growth (IMR32 cancer cell line; IMR32, up to 37 μM): no inhibition
- inhibition of cell growth [4]: no obvious inhibition

- aggregate size, minor smaller component [2]: ca. 10 nm
- fraction of major aggregate component [2]: ca. 60%
- third larger aggregate size at high concentration ([2]; 2.0 mg/mL (25), above 1.0 mg/mL (26)): ca. 1500 nm
- distribution of minor smaller aggregate ([2]; 0.125-1.0 mg/mL): 5-20 nm
- aggregate size, major (or single) component [2]: ca. 180 nm
- degradation of the sample in bovine plasma [7]: No degradation
- average aggregate size (large aggregates) [9]: 40-80 nm
- diameter of small aggregate population [9]: less than 20 nm
- predominant population size of large aggregates [9]: ca. 50 nm
Compound: Baa-Lys(FITC)-(Lys)8-OH [Peptide 25]
- cellular uptake / localization by fluorescence (HEK-293a cells [6]; listed as H-Baa-Lys(FITC)-Lys8-OH): strong green fluorescence within the cytoplasm; also recorded: accumulates in the cytoplasm
- Active Cellular Uptake (HEK-293a cells [6]): Yes
- cellular uptake at 4° C. (HEK-293a cells [8]): no cellular uptake activity

Compound: Baa-Lys(FITC)-Glu-Glu-Glu-Glu-Gly-Gly-Gly-Ser-OH ({Baa″-Lys(FITC)}-EEEEGGGS-OH) [Peptide 28]
- uptake intensity in comparison with the cationic fullerene peptides (HEK-293a cells [6]; same concentration, cell line not restated): greatly reduced

- Secondary structure with decreasing pH [5]: β-sheet
- Appearance [5]: fibers^a
- diameter of non-fibrous particles [5]: 8-10 nm
Compound: Glu-Ile-Ala-Gln-Leu-Glu-Baa-Glu-Ile-Ser-Gln-Leu-Glu-Gln-NH2 [Peptide 21]

Compound: Glu-Ile-Ala-Gln-Leu-Glu-Tyr-Glu-Ile-Ser-Gln-Leu-Glu-Gln-Gln-Glu-Ile-Gln-Ala-Leu-Glu-Ser-NH2 (EIAQLEYEISQLEQQEIQALES-NH2) [Peptide 3HP, parent model heptad peptide without Baa, reference compound]
- Secondary structure with decreasing pH [5]: random coil → α-helix
- Appearance [5]: fibers

Compound: Glu-Ile-Ala-Gln-Leu-Glu-Tyr-Glu-Ile-Ser-Gln-Leu-Glu-Gln-NH2 (EIAQLEYEISQLEQ-NH2) [Peptide 2HP, parent model heptad peptide without Baa, reference compound]
- Secondary structure with decreasing pH [5]: random coil → α-helix → β-sheet
- Appearance [5]: fibers

Compound: Lys(FITC)-(Lys)8-OH [reference compound]
- cellular uptake / localization by fluorescence (HEK-293a cells [6]): no uptake
- Active Cellular Uptake (HEK-293a cells [6]): No
